Like-named read-outs stand apart in the source and are kept apart here.

For one test, the target named is PI3K-alpha (Homo sapiens, UniProt P42336). Put plainly: Kinase inhibition assay, P-33 labelled ATP phosphate transfer, PI3K-alpha. The class given is biochemical. To be noted: for inhibition at 0.3 µM: read-out: PI3K-alpha (% Inh at 300 nM). Here is the method: (§1) The assays determined the amount of radioactive phosphate transferred from P-33 labelled ATP to the substrate by the enzyme in the presence of various concentrations of the inhibitor test compounds. […] After this time period the cells were serum starved for 5 hours followed by application of the test compound. Test compound was added as a DMSO (dimethyl sulfoxide) solution such that the final DMSO concentration in the cell media was less than or equal to 0.2% by volume. After 30 minutes of exposure the growth factor stimulant, human IGF-1 (Pepro Tech, Inc., Rocky Hill, N.J., Cat.#100-11), was added in each well. […] A SpectraMax Plus spectrophotometric plate reader (Molecular Devices, Sunnydale, Calif.) was used to measure the optical density signal for pAKT at 450 nm (OD450 nm). The pAKT OD450 nm readings were normalized by total protein amount in the cell lysates determined by standard methods. Concentrations of test compounds required to inhibit IGF stimulated pAKT levels to 50% of maximum levels in PC3 cells (termed DM50 for decreased maximum 50%) were calculated by inputting the dose responses in the software package GraphPad Prism4 (GraphPad Software, Inc., San Diego, Calif.).

In another test the test system is PC3 cells. Put plainly: PC3 cell proliferation (WST, 72 hours). Type of test: cell-based. The settings on record: Homo sapiens, read-out: PC3 cell proliferation(IC50 μM). Here is the method: The PC3 cell proliferation data in column 26 of Table 5 was obtained as follows: PC3 cells were obtained from the American Type Culture Collection (ATCC, Manassas, Va., Cat.#CRL-1435). Two thousand cells from the prostate cancer line PC3 were placed in 50 μL of complete RPMI 1640 media (Invitrogen, Carlsbad, Calif., Cat.#22400-105) with 10% fetal bovine serum, (Invitrogen, Carlsbad, Calif., Cat.#10438-026) into each well of 96-well cell culture plates in a hexaplicate sampling pattern. A 50 μL aliquot of test compound (prepared from stock test compounds in DMSO diluted into media) was added to the appropriate well such that the final concentrations of test compound were 200, 40, 8, 1.6, 0.32, 0.064, 0.0128, 0.00256, and 0 μM and the final DMSO concentration was less than or equal to 0.2% . The plates were incubated for 72 hours 37° C. in an atmosphere of 5% CO2. At the end of this time a 10 μL aliquot of WST solution (Roche Applied Science, Mannheim, Germany) was added into each of the wells. Cells were exposed to the WST solution for 4 hours. A SpectraMax Plus spectrophotometric plate reader (Molecular Devices, Sunnydale, Calif.) was then used to measure the optical density at 450 nm (OD450 nm). Sigmoidal curves were drawn for the dose responses and IC50 values were calculated using the software package GraphPad Prism4 (GraphPad Software, Inc., San Diego, Calif.).

A further test concerns the target PI3K-beta (Homo sapiens, UniProt P42338). The experiment in a line: Kinase inhibition assay, P-33 labelled ATP phosphate transfer, PI3K-beta. Type of test: biochemical. The settings on record: for inhibition at 10 µM: read-out: PI3K-beta(% Inh at 10 μM); for inhibition at 0.3 µM: read-out: PI3K-beta(% Inh at 300 nM). Here is the method:
as §1

Another test deals with PI3K-delta (Homo sapiens, UniProt O00329). The experiment in a line: Kinase inhibition assay, P-33 labelled ATP phosphate transfer, PI3K-delta. Type of test: biochemical. To be noted: for inhibition at 10 µM: read-out: PI3K-delta(% Inh at 10 μM); for inhibition at 0.3 µM: read-out: PI3K-delta(% Inh at 300 nM). The procedure: as §1
The target of the next test is PI3K-gamma (Homo sapiens, UniProt P48736). The experiment in a line: Kinase inhibition assay, P-33 labelled ATP phosphate transfer, PI3K-gamma. Type of test: biochemical. To be noted: for inhibition at 10 µM: read-out: PI3K-gamma(% Inh at 10 μM); for inhibition at 0.3 µM: read-out: PI3K-gamma(% Inh at 300 nM). The procedure: as §1
In a further test the target is mTOR (Homo sapiens, UniProt P42345). Put plainly: Kinase inhibition assay, P-33 labelled ATP phosphate transfer, mTOR. Type of test: biochemical. To be noted: for inhibition at 10 µM: read-out: mTOR(% Inh at 10 μM); for inhibition at 0.3 µM: read-out: mTOR(% Inh at 300 nM). The procedure: as §1
Another test has as its target PLK-1 (Homo sapiens, UniProt P53350). Put plainly: Kinase inhibition assay, P-33 labelled ATP phosphate transfer, PLK-1. To be noted: for inhibition at 10 µM: read-out: PLK-1(% Inh at 10 μM); for inhibition at 0.3 µM: read-out: PLK-1(% Inh at 300 nM). The class given is biochemical. The procedure:
as §1

The target in the next test is PIM-1 (Homo sapiens, UniProt P11309). The experiment in a line: Kinase inhibition assay, P-33 labelled ATP phosphate transfer, PIM-1. Type of test: biochemical. The settings on record: for inhibition at 10 µM: read-out: PIM-1(% Inh at 10 μM); for inhibition at 0.3 µM: read-out: PIM-1(% Inh at 300 nM). Here is the method: as §1
A further test concerns the target DNA-PK (Homo sapiens, UniProt P78527). The experiment in a line: Kinase inhibition assay, P-33 labelled ATP phosphate transfer, DNA-PK. The class given is biochemical. To be noted: for inhibition at 0.3 µM: read-out: DNA-PK(% Inh at 300 nM). Here is the method:
as §1

Sequence of PLK-1 (P53350 whole entry, species assumed): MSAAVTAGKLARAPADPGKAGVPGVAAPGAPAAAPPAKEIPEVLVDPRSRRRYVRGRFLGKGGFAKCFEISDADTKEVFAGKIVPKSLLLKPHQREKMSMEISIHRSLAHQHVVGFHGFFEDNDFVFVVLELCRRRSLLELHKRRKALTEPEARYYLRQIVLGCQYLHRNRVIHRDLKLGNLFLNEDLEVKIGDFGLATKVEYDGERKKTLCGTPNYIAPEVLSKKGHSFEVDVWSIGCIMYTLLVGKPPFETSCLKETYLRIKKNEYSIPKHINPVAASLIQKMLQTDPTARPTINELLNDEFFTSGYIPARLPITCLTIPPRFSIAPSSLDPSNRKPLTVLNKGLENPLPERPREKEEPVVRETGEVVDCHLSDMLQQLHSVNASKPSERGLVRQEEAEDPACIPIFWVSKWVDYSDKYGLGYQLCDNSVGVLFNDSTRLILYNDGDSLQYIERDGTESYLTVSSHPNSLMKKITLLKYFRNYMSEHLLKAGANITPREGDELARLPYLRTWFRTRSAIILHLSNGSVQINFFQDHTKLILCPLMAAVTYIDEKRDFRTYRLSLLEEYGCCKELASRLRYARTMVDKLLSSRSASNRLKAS
Sequence of PI3K-beta (P42338 whole entry, species assumed): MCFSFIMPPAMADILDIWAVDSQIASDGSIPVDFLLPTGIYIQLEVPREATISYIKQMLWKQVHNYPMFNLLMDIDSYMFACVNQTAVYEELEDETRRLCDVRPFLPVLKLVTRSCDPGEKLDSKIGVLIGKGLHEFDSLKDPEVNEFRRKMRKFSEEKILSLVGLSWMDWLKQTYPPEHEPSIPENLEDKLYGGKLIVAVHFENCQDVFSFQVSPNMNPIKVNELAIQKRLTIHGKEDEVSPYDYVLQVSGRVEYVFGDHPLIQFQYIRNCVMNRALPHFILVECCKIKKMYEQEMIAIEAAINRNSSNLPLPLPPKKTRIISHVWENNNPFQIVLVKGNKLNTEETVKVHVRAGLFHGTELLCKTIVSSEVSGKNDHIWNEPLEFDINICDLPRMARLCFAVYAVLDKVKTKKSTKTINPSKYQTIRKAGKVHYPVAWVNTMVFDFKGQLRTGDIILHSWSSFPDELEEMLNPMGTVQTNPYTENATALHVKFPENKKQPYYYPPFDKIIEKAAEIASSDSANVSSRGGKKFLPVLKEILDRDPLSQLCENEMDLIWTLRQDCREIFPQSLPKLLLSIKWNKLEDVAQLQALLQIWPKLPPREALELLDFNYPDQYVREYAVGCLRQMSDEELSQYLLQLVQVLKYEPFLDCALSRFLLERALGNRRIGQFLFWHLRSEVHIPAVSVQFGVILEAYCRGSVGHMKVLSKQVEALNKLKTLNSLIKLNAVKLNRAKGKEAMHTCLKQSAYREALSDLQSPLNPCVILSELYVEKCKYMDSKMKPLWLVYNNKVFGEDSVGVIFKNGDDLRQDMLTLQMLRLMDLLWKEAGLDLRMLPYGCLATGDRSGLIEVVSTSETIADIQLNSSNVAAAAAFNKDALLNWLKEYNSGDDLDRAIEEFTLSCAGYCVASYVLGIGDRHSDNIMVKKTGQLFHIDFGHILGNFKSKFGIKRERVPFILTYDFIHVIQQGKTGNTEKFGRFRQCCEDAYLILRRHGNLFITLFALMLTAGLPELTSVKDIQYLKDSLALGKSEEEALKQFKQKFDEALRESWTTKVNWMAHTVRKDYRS
Sequence of PI3K-beta (P27986 whole entry partner, species assumed): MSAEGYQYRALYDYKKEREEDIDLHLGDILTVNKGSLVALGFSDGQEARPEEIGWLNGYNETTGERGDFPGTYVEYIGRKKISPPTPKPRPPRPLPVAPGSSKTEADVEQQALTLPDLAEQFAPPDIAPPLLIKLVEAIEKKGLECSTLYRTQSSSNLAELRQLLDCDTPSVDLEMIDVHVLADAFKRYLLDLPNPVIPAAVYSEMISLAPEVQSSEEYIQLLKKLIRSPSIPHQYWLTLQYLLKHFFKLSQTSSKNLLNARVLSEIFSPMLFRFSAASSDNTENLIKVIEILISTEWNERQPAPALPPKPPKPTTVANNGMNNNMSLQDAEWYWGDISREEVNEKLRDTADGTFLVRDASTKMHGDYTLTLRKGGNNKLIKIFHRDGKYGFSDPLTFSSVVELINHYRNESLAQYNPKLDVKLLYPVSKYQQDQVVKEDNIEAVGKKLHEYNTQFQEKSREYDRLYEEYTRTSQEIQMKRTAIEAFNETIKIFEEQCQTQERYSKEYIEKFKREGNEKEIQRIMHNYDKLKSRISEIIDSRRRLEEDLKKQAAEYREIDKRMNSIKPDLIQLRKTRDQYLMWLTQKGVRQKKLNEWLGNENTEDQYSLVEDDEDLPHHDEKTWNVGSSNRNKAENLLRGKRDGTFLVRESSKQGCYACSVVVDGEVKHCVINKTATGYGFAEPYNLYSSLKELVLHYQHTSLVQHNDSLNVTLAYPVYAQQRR
Sequence of PI3K-gamma (P48736 whole entry, species assumed): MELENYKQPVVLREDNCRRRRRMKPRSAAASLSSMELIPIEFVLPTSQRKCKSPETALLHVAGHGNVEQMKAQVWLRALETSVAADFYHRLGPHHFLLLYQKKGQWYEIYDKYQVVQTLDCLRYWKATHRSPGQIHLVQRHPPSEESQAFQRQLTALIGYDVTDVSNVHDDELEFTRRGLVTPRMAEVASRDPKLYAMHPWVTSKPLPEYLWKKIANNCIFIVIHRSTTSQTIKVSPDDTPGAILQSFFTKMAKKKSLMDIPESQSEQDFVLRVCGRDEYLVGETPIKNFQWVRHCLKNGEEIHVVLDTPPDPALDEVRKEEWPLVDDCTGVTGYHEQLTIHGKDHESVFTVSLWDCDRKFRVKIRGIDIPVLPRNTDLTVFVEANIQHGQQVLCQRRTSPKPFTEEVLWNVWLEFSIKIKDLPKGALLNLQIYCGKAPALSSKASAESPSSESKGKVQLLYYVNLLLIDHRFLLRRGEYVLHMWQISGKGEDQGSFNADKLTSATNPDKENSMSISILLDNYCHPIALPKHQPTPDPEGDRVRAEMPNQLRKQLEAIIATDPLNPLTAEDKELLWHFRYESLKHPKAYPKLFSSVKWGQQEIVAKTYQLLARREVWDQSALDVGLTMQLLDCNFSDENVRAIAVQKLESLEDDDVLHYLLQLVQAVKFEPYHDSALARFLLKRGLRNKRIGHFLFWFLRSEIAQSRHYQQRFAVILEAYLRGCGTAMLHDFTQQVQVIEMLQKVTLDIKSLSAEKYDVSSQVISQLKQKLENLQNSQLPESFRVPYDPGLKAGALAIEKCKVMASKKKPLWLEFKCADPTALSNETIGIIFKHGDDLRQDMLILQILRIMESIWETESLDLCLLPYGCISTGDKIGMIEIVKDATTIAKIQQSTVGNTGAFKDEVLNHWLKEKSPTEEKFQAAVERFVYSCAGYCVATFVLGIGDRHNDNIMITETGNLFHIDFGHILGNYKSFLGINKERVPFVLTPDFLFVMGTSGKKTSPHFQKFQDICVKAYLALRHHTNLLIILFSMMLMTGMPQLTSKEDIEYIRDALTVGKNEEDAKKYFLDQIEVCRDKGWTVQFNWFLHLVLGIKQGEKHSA
Sequence of PI3K-alpha (P42336 whole entry, species assumed): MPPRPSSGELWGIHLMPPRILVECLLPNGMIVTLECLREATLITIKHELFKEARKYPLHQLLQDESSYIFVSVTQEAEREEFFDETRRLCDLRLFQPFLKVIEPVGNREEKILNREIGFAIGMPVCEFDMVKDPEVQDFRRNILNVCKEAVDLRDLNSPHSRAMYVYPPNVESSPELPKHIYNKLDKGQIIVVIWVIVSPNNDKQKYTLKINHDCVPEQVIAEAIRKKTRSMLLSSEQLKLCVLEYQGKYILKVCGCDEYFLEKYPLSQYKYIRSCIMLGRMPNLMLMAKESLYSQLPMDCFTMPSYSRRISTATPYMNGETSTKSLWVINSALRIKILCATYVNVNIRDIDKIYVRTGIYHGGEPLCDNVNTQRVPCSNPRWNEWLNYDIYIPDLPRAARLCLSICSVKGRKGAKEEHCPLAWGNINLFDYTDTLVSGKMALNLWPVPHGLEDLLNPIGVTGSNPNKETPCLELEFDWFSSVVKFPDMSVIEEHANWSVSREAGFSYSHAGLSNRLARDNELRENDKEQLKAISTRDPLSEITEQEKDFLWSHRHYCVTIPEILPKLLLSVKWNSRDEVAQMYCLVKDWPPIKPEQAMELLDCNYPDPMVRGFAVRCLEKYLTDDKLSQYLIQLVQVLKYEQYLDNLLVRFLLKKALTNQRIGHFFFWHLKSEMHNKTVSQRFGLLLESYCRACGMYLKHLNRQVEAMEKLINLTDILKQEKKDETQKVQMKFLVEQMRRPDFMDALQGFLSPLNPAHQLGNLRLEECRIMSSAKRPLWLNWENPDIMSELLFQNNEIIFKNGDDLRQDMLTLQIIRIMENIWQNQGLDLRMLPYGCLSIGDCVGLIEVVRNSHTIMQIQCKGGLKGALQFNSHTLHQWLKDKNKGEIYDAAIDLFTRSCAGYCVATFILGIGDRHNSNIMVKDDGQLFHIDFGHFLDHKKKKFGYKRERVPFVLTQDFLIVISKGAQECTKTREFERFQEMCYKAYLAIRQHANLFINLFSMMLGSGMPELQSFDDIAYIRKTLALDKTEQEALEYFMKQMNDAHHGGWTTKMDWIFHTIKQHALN
Sequence of PI3K-alpha (P27986 whole entry partner, species assumed): as the sequence (P27986 whole entry partner, species assumed) above
Sequence of PIM-1 (P11309 whole entry, species assumed): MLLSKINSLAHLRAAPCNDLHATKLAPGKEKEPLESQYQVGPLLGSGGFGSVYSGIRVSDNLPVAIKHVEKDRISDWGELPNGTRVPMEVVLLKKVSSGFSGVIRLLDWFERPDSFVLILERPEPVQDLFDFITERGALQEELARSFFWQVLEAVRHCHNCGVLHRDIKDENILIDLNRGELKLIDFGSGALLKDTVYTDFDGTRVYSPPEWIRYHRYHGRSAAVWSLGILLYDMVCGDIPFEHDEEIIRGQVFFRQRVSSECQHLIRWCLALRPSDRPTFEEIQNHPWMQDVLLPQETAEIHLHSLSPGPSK

In the case of `O=c1nc(N2CCOCC2)[nH]c2c(-c3ccccc3)csc12` [Compound 5, 2-morpholino-7-phenylthieno[3,2-d]pyrimidin-4(1H)-one], the inhibition at 10 µM on PI3K-alpha (read-out: PI3K-alpha(% Inh at 10 μM)) came out at 12%. Also, the IC50 with PC3 cells (PC-3, PC3 cells, 72 hours, WST) amounted to 246 µM.

Take `O=c1nc(N2CCOCC2)[nH]c2c1cnn2C1CCCCC1` [Compound 8, 1-cyclohexyl-6-morpholino-1H-pyrazolo[3,4-d]pyrimidin-4(7H)-one]: the inhibition at 0.3 µM at PI3K-alpha amounted to 2%. Further, the inhibition at 10 µM stood at 9.2% at PI3K-beta; 18% on PI3K-delta; 4.8% on PI3K-gamma; 11% on mTOR; 3.4% on PLK-1; 3.2% on PIM-1. On DNA-PK, this compound yielded an IC50 of 24 µM.

As for `Cc1nc2c(=O)nc(N3CCOCC3)[nH]c2n1-c1ccccc1` [Compound 11, 8-methyl-2-morpholino-9-phenyl-3H-purin-6(9H)-one], the inhibition at 0.3 µM on PI3K-alpha was found to be 2.6%; at PI3K-beta, 0%; at PI3K-delta it was 32%; on PI3K-gamma, 0%; on mTOR, 0%; at PLK-1, 0%. For the same compound, the inhibition at 0.3 µM at PIM-1 and at DNA-PK was 0% throughout.

For the compound `O=c1nc(N2CCOCC2)oc2c(-c3ccc4c(c3)OCCO4)csc12` [Compound 12], the inhibition at 0.3 µM on PI3K-alpha amounted to 53%; at PI3K-delta, 72%; at mTOR it was 0%; at PLK-1, 0%. For the same compound, the IC50 in the test with PC3 cells (PC-3, PC3 cells, 72 hours, WST) worked out at 4.7 µM.

Take `COc1cccc(-c2csc3c(=O)nc(N4CCOCC4)oc23)c1` [Compound 13]: the inhibition at 0.3 µM stood at 6.8% at PI3K-alpha, 0% at PI3K-delta, 0% at mTOR and 0% at PLK-1. Besides, the IC50 in the test with PC3 cells (PC-3, 72 h) was determined as 94 µM.

Regarding `COc1ccc(-c2csc3c(=O)nc(N4CCOCC4)oc23)cc1` [Compound 14], the inhibition at 0.3 µM on PI3K-alpha was found to be 19%; on PI3K-delta, 27%; on mTOR, 0%; at PLK-1, 0%.

With `CN(C)c1ccc(-c2csc3c(=O)nc(N4CCOCC4)oc23)cc1` [Compound 15], the inhibition at 0.3 µM at PI3K-alpha worked out at 11%; at PI3K-delta it was 33%; at mTOR, 0%; at PLK-1 it was 0%. The IC50 in the test on PC3 cells (PC-3, PC3 cells, 72 hours, WST) was 20 µM.

Turning to `O=C(NCCN1CCOCC1)c1cccc(-c2csc3c(=O)nc(N4CCOCC4)oc23)c1` [Compound 16], the inhibition at 0.3 µM at PI3K-alpha stood at 16%; on PI3K-delta, 17%; at mTOR, 0%; at PLK-1 it was 0%. Besides, the IC50 in the test with PC3 cells (PC-3, PC3 cells, 72 hours, WST) is 31 µM.

Regarding `Nc1ccc(-c2csc3c(=O)nc(N4CCOCC4)oc23)cc1` [Compound 17], the inhibition at 0.3 µM on PI3K-alpha came out at 22%; at PI3K-delta, 32%; at mTOR, 0%; at PLK-1, 0%. In addition, the IC50 with PC3 cells (PC-3, PC3 cells, 72 hours, WST) was 108 µM.

Consider `O=c1nc(N2CCOCC2)oc2c(-c3cccnc3)csc12` [Compound 18], for which the inhibition at 0.3 µM at PI3K-alpha, on PI3K-delta, at mTOR and on PLK-1 was 0% each time.

Take `O=c1nc(N2CCOCC2)oc2c(-c3ccoc3)csc12` [Compound 19]: the inhibition at 0.3 µM was determined as 15% at PI3K-alpha, 0% at PI3K-delta, 3% on mTOR and 0% on PLK-1.

On to `COc1ccc(C#Cc2csc3c(=O)nc(N4CCOCC4)oc23)cc1` [Compound 20], for which the inhibition at 0.3 µM at PI3K-alpha, on PI3K-delta, at mTOR and on PLK-1 was 0% each time.

In the case of `O=c1nc(N2CCOCC2)[nH]c2c1cnn2Cc1ccccc1` [Compound 23], on PI3K-alpha, the inhibition at 0.3 µM was determined as 6.6%. Besides, the inhibition at 10 µM on PI3K-beta was found to be 14%; at PI3K-delta, 0%; on PI3K-gamma it was 15%; at mTOR it was 0%; at PLK-1, 4.9%; at PIM-1, 2.1%. Further, the IC50 on DNA-PK was 24 µM.

For the compound `O=c1nc(N2CCOCC2)[nH]c2c1cnn2-c1ccccn1` [Compound 25], the inhibition at 0.3 µM at PI3K-alpha amounted to 6.6%. For the same compound, the inhibition at 10 µM is 4.7% at PI3K-beta; 10% on PI3K-delta; 35% on PI3K-gamma; 0% on mTOR; 2.6% on PLK-1; 9.4% at PIM-1. This compound had an IC50 against DNA-PK of 24 µM.

`O=c1nc(N2CCOCC2)[nH]c2c1cnn2CCO` [Compound 26]: the inhibition at 0.3 µM at PI3K-alpha came to 9%. Moreover, the inhibition at 10 µM was 14% at PI3K-beta; 26% on PI3K-delta; 0.6% on PI3K-gamma; 0.5% at mTOR; 3.3% at PLK-1; 1.5% at PIM-1. Further, the IC50 at DNA-PK was found to be 24 µM.

Consider `O=c1nc(N2CCOCC2)[nH]c2c1cnn2-c1ccc(Cl)cc1` [Compound 28], for which the inhibition at 0.3 µM on PI3K-alpha came out at 6.9%. The inhibition at 10 µM on PI3K-delta turned out to be 0%.

On to `Cc1nc2c(=O)nc(N3CCOCC3)[nH]c2n1Cc1ccccc1` [Compound 29], for which the inhibition at 0.3 µM on PI3K-alpha is 7%; on PI3K-beta, 0%; on PI3K-delta, 0%; at PI3K-gamma, 0%; on mTOR, 0%; on PLK-1, 0%. Besides, the inhibition at 0.3 µM at PIM-1 and on DNA-PK was 0% each time.

Take `Cc1nc2c(=O)nc(N3CCOCC3)[nH]c2n1-c1ccc(F)cc1` [Compound 30]: the inhibition at 0.3 µM amounted to 4.7% on PI3K-alpha; 14% on PI3K-beta; 32% on PI3K-delta; 3% at PI3K-gamma; 0% at mTOR; 0% on PLK-1. The inhibition at 0.3 µM on PIM-1 and at DNA-PK was 0% throughout.

`Cc1nc2c(=O)nc(N3CCOCC3)[nH]c2n1-c1ccc2[nH]ccc2c1` [Compound 31]: the inhibition at 0.3 µM at PI3K-alpha was 7.5%; at PI3K-beta, 2.5%; at PI3K-delta it was 8.7%; at PI3K-gamma, 7.5%; at mTOR, 0%; at PLK-1, 0%. Further, the inhibition at 0.3 µM at PIM-1 and at DNA-PK was 0% each time.

Consider `Cc1ccc(-n2c(C)nc3c(=O)nc(N4CCOCC4)[nH]c32)cc1` [Compound 32], for which the inhibition at 0.3 µM on PI3K-alpha was found to be 0%; at PI3K-beta, 0%; on PI3K-delta, 15%; at PI3K-gamma it was 1%; at mTOR it was 0%; on PLK-1, 0%. The inhibition at 0.3 µM at PIM-1 and on DNA-PK was 0% in each case.

The values above are taken from US10174032B2, “Heterocyclic compound classes for signaling modulation” (SignalRx Pharmaceuticals, Inc., priority 2014, dated 2019).
